From PMC5433425 (PeerJ, 2017)
≈ marks a conversion by molar mass, not a printed value.

What was measured:
E. coli AG100 = assay: Time-kill kinetics (CFU); type: cell-based, Escherichia coli; conditions: AG100
Method: A drug-free control was included in the assay to monitor the normal growth of the strain. Cultures were sampled for CFU determination after 0, 1, 2, 3, 4, 5, 6, and 24 h of incubation at 37 °C with shaking. For CFU determination, 10-fold serial dilutions were made in a saline solution and 20 µl of each solution was placed onto the surface of a Mueller–Hinton agar plate. The colonies were counted after the incubation of the plates at 37 °C for 24 h. The limit of detection of the assay was 17 CFU/ml. Each assay was repeated at least twice.

[1] = system: Enterobacter aerogenes ATCC13048; assay: MIC, antibacterial specificity; type: cell-based
[2] = system: Acinetobacter baumannii ATCC19606T; assay: MIC, antibacterial specificity; type: cell-based
[3] = system: Klebsiella pneumoniae FF4891; assay: MIC, antibacterial specificity; type: cell-based
[4] = system: Mycobacterium smegmatis mc2155 ATCC700084T; assay: MIC, antibacterial specificity; type: cell-based
Mycobacterium avium 104 = assay: MIC, antibacterial specificity; type: cell-based
[5] = system: Mycobacterium tuberculosis H37Rv ATCC27294T; assay: MIC, antibacterial specificity; type: cell-based

CCCOc1ccc(-c2cc(OCCN3CCNCC3)c3ccccc3n2)cc1 [PQQ4R, 4-(2-(piperazin-1-yl)ethoxy)-2-(4-propoxyphenyl) quinolone]
CFU count Log10 (E. coli AG100; 4xMIC, T5 (5 h)): 0
CFU count Mean (E. coli AG100; 4xMIC, T5 (5 h)): 0.0E+00
CFU count - Strain dilution (E. coli AG100; 4xMIC, T6 (6 h)): 0
CFU count - absolute values (E. coli AG100; 4xMIC, T6 (6 h)): 0
CFU count Log10 (E. coli AG100; 4xMIC, T6 (6 h)): 0
CFU count Mean (E. coli AG100; 4xMIC, T6 (6 h)): 0.0E+00
CFU count - Strain dilution (E. coli AG100; 4xMIC, T24 (24 h)): 0
CFU count - absolute values (E. coli AG100; 4xMIC, T24 (24 h)): 0
CFU count Log10 (E. coli AG100; 4xMIC, T24 (24 h)): 0
CFU count Mean (E. coli AG100; 4xMIC, T24 (24 h)): 0.0E+00
CFU count - Strain dilution (E. coli AG100; 8xMIC, T1 (1 h)): 0
CFU count - absolute values (E. coli AG100; 8xMIC, T1 (1 h)): 0
CFU count Log10 (E. coli AG100; 8xMIC, T1 (1 h)): 0
CFU count Mean (E. coli AG100; 8xMIC, T1 (1 h)): 0.0E+00
CFU count - Strain dilution (E. coli AG100; 8xMIC, T2 (2 h)): 0
CFU count - absolute values (E. coli AG100; 8xMIC, T2 (2 h)): 0
CFU count Log10 (E. coli AG100; 8xMIC, T2 (2 h)): 0
CFU count Mean (E. coli AG100; 8xMIC, T2 (2 h)): 0.0E+00
CFU count - Strain dilution (E. coli AG100; 8xMIC, T3 (3 h)): 0
CFU count - absolute values (E. coli AG100; 8xMIC, T3 (3 h)): 0
CFU count Log10 (E. coli AG100; 8xMIC, T3 (3 h)): 0
CFU count Mean (E. coli AG100; 8xMIC, T3 (3 h)): 0.0E+00
CFU count - Strain dilution (E. coli AG100; 8xMIC, T4 (4 h)): 0
CFU count - absolute values (E. coli AG100; 8xMIC, T4 (4 h)): 0
CFU count Log10 (E. coli AG100; 8xMIC, T4 (4 h)): 0
CFU count Mean (E. coli AG100; 8xMIC, T4 (4 h)): 0.0E+00
CFU count - Strain dilution (E. coli AG100; 8xMIC, T5 (5 h)): 0
CFU count - absolute values (E. coli AG100; 8xMIC, T5 (5 h)): 0
CFU count Log10 (E. coli AG100; 8xMIC, T5 (5 h)): 0
CFU count Mean (E. coli AG100; 8xMIC, T5 (5 h)): 0.0E+00
CFU count - Strain dilution (E. coli AG100; 8xMIC, T6 (6 h)): 0
CFU count - absolute values (E. coli AG100; 8xMIC, T6 (6 h)): 0
CFU count Log10 (E. coli AG100; 8xMIC, T6 (6 h)): 0
CFU count Mean (E. coli AG100; 8xMIC, T6 (6 h)): 0.0E+00
CFU count - Strain dilution (E. coli AG100; 8xMIC, T24 (24 h)): 0
CFU count - absolute values (E. coli AG100; 8xMIC, T24 (24 h)): 0
CFU count Log10 (E. coli AG100; 8xMIC, T24 (24 h)): 0
CFU count Mean (E. coli AG100; 8xMIC, T24 (24 h)): 0.0E+00
CFU count Log10 (E. coli AG100; MIC, T1 (1 h)): 3.007
CFU count Mean (E. coli AG100; MIC, T1 (1 h)): 1.0E+03
CFU count Log10 (E. coli AG100; MIC, T2 (2 h)): 2.336
CFU count Mean (E. coli AG100; MIC, T2 (2 h)): 2.2E+02
CFU count Log10 (E. coli AG100; MIC, T3 (3 h)): 1.222
CFU count Mean (E. coli AG100; MIC, T3 (3 h)): 1.7E+01
CFU count - Strain dilution (E. coli AG100; MIC, T4 (4 h)): 0
CFU count - absolute values (E. coli AG100; MIC, T4 (4 h)): 0
CFU count Log10 (E. coli AG100; MIC, T4 (4 h)): 0
CFU count Mean (E. coli AG100; MIC, T4 (4 h)): 0.0E+00
CFU count - Strain dilution (E. coli AG100; MIC, T5 (5 h)): 0
CFU count - absolute values (E. coli AG100; MIC, T5 (5 h)): 0
CFU count Log10 (E. coli AG100; MIC, T5 (5 h)): 0
CFU count Mean (E. coli AG100; MIC, T5 (5 h)): 0.0E+00
CFU count - Strain dilution (E. coli AG100; MIC, T6 (6 h)): 0
CFU count - absolute values (E. coli AG100; MIC, T6 (6 h)): 0
CFU count Log10 (E. coli AG100; MIC, T6 (6 h)): 0
CFU count Mean (E. coli AG100; MIC, T6 (6 h)): 0.0E+00
CFU count - Strain dilution (E. coli AG100; MIC, T24 (24 h)): 0
CFU count - absolute values (E. coli AG100; MIC, T24 (24 h)): 0
CFU count Log10 (E. coli AG100; MIC, T24 (24 h)): 0
CFU count Mean (E. coli AG100; MIC, T24 (24 h)): 0.0E+00
reduction in bacterial viability (E. coli AG100; half MIC): approx. 1 log
MIC [1]: >256 µg/mL
MIC [2]: 128 µg/mL (≈ 327 µM)
MIC [3]: >256 µg/mL
MIC [4]: 32 µg/mL (≈ 81.7 µM)
MIC (Mycobacterium avium 104): 32 µg/mL (≈ 81.7 µM)
MIC [5]: 32 µg/mL (≈ 81.7 µM)
